Laboratory results from US12286452B2, “Amphiphilic aminoglycoside connexin hemichannel inhibitors” (Texas Tech University System, priority 2018, dated 2025).
Like-named read-outs stand apart in the source and are kept apart here.

What was measured:
Cx43 HCs = target: T1, Cx43 HCs (Homo sapiens, UniProt P17302); experiment: Cx43-dependent growth complementation assay in E. coli LB2003; assay type: cell-based; details: for Cx43/Cx26 Selectivity: IC50 Cx26/IC50 Cx43
T1 construct: expressed in transfected cells

human Cx26 HCs = target: T2, human Cx26 HCs (Homo sapiens, UniProt P29033); experiment: Cx26-dependent growth complementation assay in E. coli LB2003; assay type: cell-based
T2 construct: expressed in transfected cells; host or cells: E. coli LB2003 (carrying pREP4), transformed with pQE-Cx26, IPTG-induced
Procedure: These derivatives were prepared by sequential benzylation and methylation followed by reduction of azido groups or hydrogenolysis of the Bn. […] Connexin HC inhibition was conducted using a bacteria-based assay of HC function^39. In this assay, Cx26 HCs are expressed in E. coli LB2003 cells, which lack three major K^+ uptake systems (Kdp, Kup and Trk), and as a result they cannot grow in low-[K^+] media^39-41. However, growth of this E. coli strain in low-[K^+] medium can be rescued by expression of K^+-permeable channels such as connexin HCs^39, 42-43. Under the conditions of the assay (LB2003 cells expressing HCs and grown in low-K^+ medium), inhibition of the HCs reduces or abolishes growth^39, 42-43. This is a simple assay where bacterial growth in multi-well plates can be followed by measuring the absorbance at 600 nm (OD600)^29.
LB2003 cells generously provided by Dr. E. P. Bakker (Osnabruk University, Osnabruk, Germany) were transformed with the plasmid pQE-Cx26 (human Cx26 into pQE60) and pREP4. […] LB2003 cells cannot grow in low-[K^+] media because of insufficient K^+ uptake for growth due to the knockout of three key K^+ transporters (Atrk, Akup, Akdp strain)^2-4. Details and validation of the growth complementation assay have been published recently^2. In brief, competent LB2003 containing the pREP4 plasmid were transformed with pQE-Cx26. These cells were grown overnight in Luria-Bertani medium (BD, Franklin Lakes, NJ, USA) supplemented with 100 mM KCl (to allow growth) and 0.4 mg/mL ampicillin, and then washed four times with NLM (see below), to remove residual K^+ from the Luria-Bertani medium. The washed cells were resuspended in complementation growth medium to an OD600 of 0.2. NLM contained 46 mM Na2HPO4, 23 mM NaH2PO4, 8 mM (NH4)2SO4, 0.4 mM MgSO4, 0.012 mM FeSO4, 1 mM sodium citrate, 44 mM glucose and 0.006 mM thiamine hydrochloride, pH 7.0. KLM had the same composition that NLM except for the equimolar replacement of Na^+ with K^+. For growth complementation we used NLM+4 mM KCl, and Cx26 expression was induced with 0.5 mM IPTG at the time of dilution to OD600=0.2. For the assay, the cells were seeded in 96-well plates and were incubated at 30° C., with shaking at 500 rpm. OD600 was measured after 18-h incubation in a plate reader. The initial OD600=0.2 was subtracted for growth calculations. Data are presented as means±SEM. Statistically significant differences were calculated by the Student t-test for unpaired data. Data were obtained from at least 3 independent experiments, with 3 repeats per experiment.

[1] = 4″,6″-disubstituted AKs, Table 5, read-out: Cx43 IC50
[2] = K46 members, the 20th table, read-out: IC50 (μM) against Cx43
[3] = the 13th table, read-out: Cx43 IC50
[4] = KI members, the 23rd table, read-out: Cx43 % inhibition
[5] = Table 3, read-out: Cx243% inhibition
[6] = Table 6, read-out: Cx43 (% inhibition)
[7] = K members, the 21st table, read-out: Cx43 % inhibition
[8] = 4″,6″-disubstituted AKs, Table 5, read-out: Cx26 IC50
[9] = K46 members, the 20th table, read-out: IC50 (μM) against Cx26
[10] = read-out: IC50, inhibition of Cx26 by kanamycin A and synthetic AGs, first Table 1

T1 sequence (P17302 whole entry): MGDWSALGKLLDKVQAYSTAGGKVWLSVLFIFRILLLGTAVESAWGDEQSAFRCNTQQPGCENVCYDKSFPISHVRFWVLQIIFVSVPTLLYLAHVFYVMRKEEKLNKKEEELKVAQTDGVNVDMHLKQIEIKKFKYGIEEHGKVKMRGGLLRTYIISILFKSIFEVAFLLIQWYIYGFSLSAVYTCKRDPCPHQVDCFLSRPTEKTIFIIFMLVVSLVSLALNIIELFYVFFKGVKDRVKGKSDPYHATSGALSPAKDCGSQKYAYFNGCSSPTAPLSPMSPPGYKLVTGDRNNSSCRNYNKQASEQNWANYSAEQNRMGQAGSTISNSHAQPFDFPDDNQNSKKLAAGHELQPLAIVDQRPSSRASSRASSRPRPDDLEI

| inhibition at 15 µM (Cx43 HCs; [5]) [%] | inhibition at 50 µM (Cx43 HCs; [5]) [%] | inhibition at 15 µM (human Cx26 HCs; Table 3) [%] | inhibition at 50 µM (human Cx26 HCs; Table 3) [%] | inhibition at 15 µM (Cx43 HCs; [7]) [%] | inhibition at 50 µM (Cx43 HCs; [7]) [%] | SMILES | IC50 (human Cx26 HCs; [8]) [µM] | IC50 (human Cx26 HCs; [9]) [µM] | IC50 (human Cx26 HCs; [10]) [µM] | also measured |
| --- | --- | --- | --- | --- | --- | --- | --- | --- | --- | --- |
| 44.4 ± 5.3 | 53.5 ± 1.9 | 16.1 ± 3.2 | 33.6 ± 3.8 |  |  | CCCCCCCCCC(=O)NCC1O[C@H](OC2C(N)CC(N)C(OC3O[C@H](CO)C(O)C(N)[C@H]3O)[C@H]2O)C(O)C(O)[C@@H]1O (stereo partly shown) [KI03] |  |  |  | inhibition at 15 µM (Cx43 HCs; [4]): 44.4 ± 5.3%; inhibition at 15 µM (Cx43 HCs; [6]): 44.4 ± 5.3%; inhibition at 50 µM (Cx43 HCs; [4]): 53.5 ± 1.9%; inhibition at 50 µM (Cx43 HCs; [6]): 53.5 ± 1.9%; inhibition at 15 µM (human Cx26 HCs; Table 6): 16.1 ± 3.2%; inhibition at 50 µM (human Cx26 HCs; Table 6): 33.6 ± 3.8% |
| 45.3 ± 2.7 | 55.1 ± 5.8 | 37.1 ± 13.5 | 81 ± 1.7 | 45.3 ± 2.7 | 55.1 ± 5.8 | NCC1O[C@H](OC2C(N)CC(N)C(OC3O[C@H](CNC(=O)c4ccccc4-c4c5ccc(=O)cc-5oc5cc(O)ccc45)C(O)C(N)[C@H]3O)[C@H]2O)C(O)C(O)[C@@H]1O (stereo partly shown) [Compound K40] |  |  |  |  |
| 38.1 ± 2.8 | 51 ± 8.8 | 26.8 ± 1.7 | 49.2 ± 5.5 | 38.1 ± 2.8 | 51 ± 8.8 | Cc1ccc(S(=O)(=O)OC[C@H]2OC(OC3C(N)CC(N)C(O[C@H]4OC(CN)[C@@H](O)C(O)C4O)[C@@H]3O)[C@H](O)C(N)C2O)cc1 (stereo partly shown) [Compound K19] |  |  |  |  |
| 36 ± 3.9 | 46.7 ± 7.8 | 14.6 ± 4.3 | 69.4 ± 4.2 | 36 ± 3.9 | 46.7 ± 7.8 | NCC1O[C@H](OC2C(N)CC(N)C(OC3O[C@H](COc4ccccc4)C(O)C(N)[C@H]3O)[C@H]2O)C(O)C(O)[C@@H]1O (stereo partly shown) [Compound K34] |  |  |  | inhibition at 15 µM (Cx43 HCs; [6]): 36 ± 3.9%; inhibition at 50 µM (Cx43 HCs; [6]): 46.7 ± 7.8%; inhibition at 15 µM (human Cx26 HCs; Table 6): 14.6 ± 4.3%; inhibition at 50 µM (human Cx26 HCs; Table 6): 69.4 ± 4.2% |
|  |  |  |  | 8.9 | 89.4 | NCC1O[C@H](O[C@@H]2C(N)C[C@@H](N)C(O[C@H]3OC(COc4ccc(-c5nc6ccccc6[nH]5)cc4)[C@@H](O)C(N)C3O)C2O)C(O)C(O)[C@@H]1O (stereo partly shown) [Compound K30] |  |  |  | IC50 (Cx43 HCs; the 12th table, Hill fit, mean ± SEM, some n = 1, read-out: Cx43 IC50): 8.9 µM |

Further lines, the compound ahead of its results:

| SMILES | inhibition at 15 µM (Cx43 HCs; [5]) [%] | inhibition at 50 µM (Cx43 HCs; [5]) [%] | inhibition at 15 µM (human Cx26 HCs; Table 3) [%] | inhibition at 50 µM (human Cx26 HCs; Table 3) [%] | inhibition at 15 µM (Cx43 HCs; [7]) [%] | inhibition at 50 µM (Cx43 HCs; [7]) [%] | IC50 (human Cx26 HCs; [8]) [µM] | IC50 (human Cx26 HCs; [9]) [µM] | IC50 (human Cx26 HCs; [10]) [µM] | also measured |
| --- | --- | --- | --- | --- | --- | --- | --- | --- | --- | --- |
| Cc1ccc(COCC2OC(OC3C(N)CC(N)C(OC4OC(CN)C(O)C(O)C4O)C3O)C(O)C(N)C2OCc2ccc(C)cc2)cc1 (stereo not shown) [Compound 11, 4″,6″-Di-O-(4-methylbenzyl) kanamycin] |  |  |  |  |  |  |  |  |  | IC50 (Cx43 HCs; [1]): 3.1 ± 0.9 µM; Cx43/Cx26 Selectivity (Cx43 HCs; Table 5): 1.39; IC50 (Cx43 HCs; [2]): 3.1 ± 0.9 µM; Cx43 Imax (Cx43 HCs; the 13th table): 80.4 ± 6%; IC50 (Cx43 HCs; [3]): 3.1 ± 0.9 µM; IC50 (human Cx26 HCs; first Table 2, read-out: IC50, inhibition of Cx26 by synthetic AGs): 4.3 ± 0.4 µM; Cx26 Imax (human Cx26 HCs; the 13th table): 102 ± 3% |
| CCCCCCCCOC[C@H]1OC(O[C@@H]2C(N)CC(N)C(O[C@H]3OC(CN)[C@@H](O)[C@H](O)C3O)[C@@H]2O)[C@H](O)[C@H](N)C1OCCCCCCCC (stereo partly shown) [Compound 5] |  |  |  |  |  |  | 13.6 ± 0.5 | 13.6 ± 0.5 | 13.6 ± 0.5 | IC50 (Cx43 HCs; [1]): 11.4 ± 4.3 µM; Cx43/Cx26 Selectivity (Cx43 HCs; Table 5): 1.19; IC50 (Cx43 HCs; [2]): 26.6 ± 7.8 µM; Cx43 Imax (Cx43 HCs; the 13th table): 119 ± 8%; IC50 (Cx43 HCs; [3]): 11.4 ± 4.3 µM; Cx26 Imax (human Cx26 HCs; the 13th table): 94 ± 2%; IC50 (human Cx26 HCs; the 13th table, read-out: Cx26 IC50): 13.5 ± 0.5 µM |
| CCCCOCC1OC(OC2C(N)CC(N)C(OC3OC(CN)C(O)C(O)C3O)C2O)C(O)C(N)C1OCCCC (stereo not shown) [Compound 2] |  |  |  |  |  |  | 19 ± 2 | 19 ± 2.8 | 19 ± 2.8 |  |
| CCCCCCOC[C@H]1O[C@H](O[C@@H]2[C@@H](O)[C@H](O[C@H]3O[C@H](CN)[C@@H](O)[C@H](O)[C@H]3O)[C@@H](N)C[C@H]2N)[C@H](O)[C@@H](N)[C@@H]1OCCCCCC [Compound 3] |  |  |  |  |  |  | 6.2 ± 1.4 | 6.2 ± 1.4 | 6.2 ± 1.4 |  |
